These results are taken from ChEMBL document CHEMBL1201862, “PubChem BioAssay data set” (2004).

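Method: 48-hour compound exposure of cells in 96-well plates, five concentrations, linear interpolation of endpoints. GI50 is the concentration that inhibits growth by half.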 The source made the active and inactive calls. Cut-off read from the data, not from the text of the source: active = GI50 up to about 1.1 µM and inactive = higher. Where only a bound is given, the exact number is not on record here.

Holding throughout (assay): inhibition of tumour cell growth, NCI panel, 48 h
The subject of assay [1] is A549.
Assay [2] has as its system SF-268.
Assay [3] has as its system OVCAR-3.
The subject of assay [4] is OVCAR-5.
The test system of assay [5] is SN12C.
In assay [6] the test system is COLO 205.
Assay [7] has as its system NCI-H460.
Assay [8] deals with Malme-3M.
Assay [9] deals with SW-620.
Assay [10] deals with SK-MEL-2.
For assay [11], the system named is MOLT-4.
Assay [12] has as its system SK-MEL-5.
In assay [13] the test system is A498.
Assay [14] concerns UACC-62.
Assay [15] deals with NCI-H23.
The test system of assay [16] is M14.
In assay [17] the test system is RXF 393.
The test system of assay [18] is ACHN.
Assay [19] has as its system TK-10.
In assay [20] the test system is SK-OV-3.

With `CCOc1ccc2c(C)cc(=O)oc2c1`, the GI50 in assay [1], in assay [2], in [3], in [4], in assay [5] and in assay [6] was > 100 µM (inactive) in each case. Moreover, the GI50 in [7], in assay [8], in assay [9], in assay [10], in assay [11] and in assay [12] was > 100 µM (inactive) in each case. Besides, the GI50 in assay [13], in assay [14], in assay [15], in [16], in [17] and in assay [18] was > 100 µM (inactive) each time.
With `Cc1cc(=O)oc2c1cc1ccc3cccc4ccc2c1c34`, the GI50 in assay [2] is > 100 µM (inactive); in [3], > 100 µM (inactive); in assay [5], > 100 µM (inactive); in assay [6], > 100 µM (inactive); in assay [7] it was 89.3 µM (inactive); in assay [8], > 100 µM (inactive). Further, the GI50 in assay [9], in assay [10], in assay [19], in [11], in assay [12] and in assay [13] was > 100 µM (inactive) each time. Moreover, the GI50 in [14] was > 100 µM (inactive); in assay [15], > 100 µM (inactive); in assay [16], > 100 µM (inactive); in assay [20] it was > 100 µM (inactive); in assay [18], 46.7 µM (inactive).
As to `O=C(OCCOC(=O)c1ccc2c(c1)C1(SCCS1)c1ccccc1-2)c1ccc2c(c1)C1(SCCS1)c1ccccc1-2`, the GI50 in assay [1], in assay [2], in [3], in assay [4], in [5] and in assay [6] was > 100 µM (inactive) each time. The GI50 in assay [7], in [8], in assay [9], in assay [10], in [11] and in assay [12] was > 100 µM (inactive) in each case. Besides, the GI50 in assay [13], in assay [14], in [15], in assay [16], in [20] and in assay [18] was > 100 µM (inactive) in each case.
Consider `COc1cc(/C=C2\N=C(c3ccccc3)N(C3Nc4cc5c(cc4S3)NC(N3C(=O)/C(=C/c4cc(OC)c(OC)c(OC)c4)N=C3c3ccccc3)S5)C2=O)cc(OC)c1OC` (configuration not stated), for which the GI50 in [1] was 23.6 µM (inactive); in assay [2], > 100 µM (inactive); in [3], 61 µM (inactive); in assay [4] it was > 100 µM (inactive); in assay [7], 13.7 µM (inactive); in assay [9] it was > 100 µM (inactive). The GI50 was > 100 µM (inactive) in assay [10]; > 100 µM (inactive) in assay [19]; 25.9 µM (inactive) in assay [11]; 64.9 µM (inactive) in [12]; 68.4 µM (inactive) in assay [13]; 94.6 µM (inactive) in assay [15]. Further, the GI50 in assay [16], in [17] and in assay [18] was > 100 µM (inactive) in each case.
With `CC1CC2=C(S(=O)(=O)c3ccccc3)CC(S(=O)(=O)c3ccccc3)(S(=O)(=O)c3ccccc3)CC21` (configuration not stated), the GI50 in [1], in assay [2], in [3], in assay [4], in assay [5] and in assay [6] was > 100 µM (inactive) in each case. Also, the GI50 in assay [7], in assay [9], in [10], in assay [19], in assay [11] and in assay [12] was > 100 µM (inactive) throughout. The GI50 in assay [13], in assay [14], in assay [15], in assay [16], in assay [17] and in [20] was > 100 µM (inactive) each time. Also, in assay [18], the GI50 is > 100 µM (inactive).
As to `O=C1Nc2ccc(Cl)cc2/C1=C\c1c(Cl)nc2sccn12`, the GI50 in assay [2] is > 100 µM (inactive); in assay [3] it was 3.32 µM (inactive); in assay [4], 14.7 µM (inactive); in assay [5], > 100 µM (inactive); in [7] it was 1.96 µM (inactive); in [8], > 100 µM (inactive). Further, the GI50 is 14.8 µM (inactive) in assay [9]; 0.314 µM (active) in [10]; 8.47 µM (inactive) in assay [19]; 2.59 µM (inactive) in assay [11]; 0.0632 µM (active) in assay [13]; 59 µM (inactive) in [15]. For the same compound, the GI50 in assay [16] was 34.2 µM (inactive); in [17], 18.6 µM (inactive); in assay [20] it was 36.8 µM (inactive); in [18], > 100 µM (inactive).
Regarding `COC1=CC(=O)C2(C=C1OC)OC[C@H]1Oc3c(ccc4c3C=CC(C)(C)O4)C(=O)[C@H]12` (some centres not stated), the GI50 was 42.5 µM (inactive) in [1]; 42.4 µM (inactive) in [3]; > 100 µM (inactive) in [4]; 36.6 µM (inactive) in assay [6]; 49.2 µM (inactive) in assay [7]; 57 µM (inactive) in [8]. Further, the GI50 was 35 µM (inactive) in assay [9]; 45.2 µM (inactive) in assay [10]; 79.3 µM (inactive) in assay [19]; 27.4 µM (inactive) in [11]; 63.7 µM (inactive) in assay [13]; 47.1 µM (inactive) in [14]. Moreover, the GI50 in assay [15] was 23.7 µM (inactive); in assay [16] it was 41.7 µM (inactive); in assay [17] it was 30.2 µM (inactive); in [20], 70.1 µM (inactive); in [18], 44.8 µM (inactive).
For the compound `Cc1ccc(/N=N/C(C(=O)c2ccccc2)C(=O)c2ccccc2)cc1`, the GI50 in [1] was 27.3 µM (inactive); in assay [2], 29.8 µM (inactive); in assay [3], 29.1 µM (inactive); in assay [4], 22.2 µM (inactive); in [5], 18.7 µM (inactive); in [6], 22.6 µM (inactive). Further, the GI50 is 29.9 µM (inactive) in assay [8]; 29.1 µM (inactive) in assay [9]; 19.5 µM (inactive) in assay [10]; 41.4 µM (inactive) in assay [19]; 10.2 µM (inactive) in [11]; 17.7 µM (inactive) in assay [12]. The GI50 is 27.4 µM (inactive) in [13]; 16.4 µM (inactive) in assay [14]; 20.5 µM (inactive) in assay [15]; 15.7 µM (inactive) in assay [16]; 47.1 µM (inactive) in assay [20]; 26.6 µM (inactive) in [18].
`O=C1CCC(NC(=O)Cc2ccc(O)cc2)C(=O)N1` (configuration not stated): the GI50 in assay [1], in [2], in assay [3], in assay [4], in [5] and in assay [6] was > 2500 µM (inactive) each time. Besides, the GI50 in [7], in assay [9], in assay [19], in [12], in [13] and in assay [14] was > 2500 µM (inactive) each time. The GI50 in assay [15] is > 2500 µM (inactive); in assay [16], > 2500 µM (inactive); in assay [20], 1020 µM (inactive); in [18], > 2500 µM (inactive).
As for `CC/C=C\C/C=C\C/C=C\CCCCCCCC(=O)OC` [METHYL LINOLENATE], the GI50 in assay [1] was > 100 µM (inactive); in assay [2] it was > 100 µM (inactive); in assay [3], > 100 µM (inactive); in assay [4] it was > 100 µM (inactive); in [5], > 100 µM (inactive); in assay [6], 61.1 µM (inactive). The GI50 in assay [7] was > 100 µM (inactive); in assay [8] it was > 100 µM (inactive); in assay [9], > 100 µM (inactive); in assay [10], > 100 µM (inactive); in assay [11], 87.5 µM (inactive); in assay [12], > 100 µM (inactive). The GI50 in assay [13], in [14], in assay [15] and in [20] was > 100 µM (inactive) throughout.
Consider `O=C1NC(O)CCN1C1OC(CO)C(O)C1O` (configuration not stated), for which the GI50 was > 250 µM (inactive) in assay [1]; > 250 µM (inactive) in assay [2]; > 250 µM (inactive) in [3]; > 92 µM (inactive) in [4]; > 250 µM (inactive) in assay [5]; > 250 µM (inactive) in assay [6]. The GI50 in assay [7] is > 250 µM (inactive); in [8], > 250 µM (inactive); in assay [9] it was > 250 µM (inactive); in assay [10] it was > 158 µM (inactive); in [11] it was > 250 µM (inactive); in assay [12], > 66.4 µM (inactive). Also, the GI50 in [13] is > 211 µM (inactive); in [14], > 250 µM (inactive); in assay [15], > 250 µM (inactive); in [17], > 250 µM (inactive); in [20], > 250 µM (inactive).
